Assay results: patent EP2506856B1, “AMINOSTEROID COMPOUNDS FOR TOPIC LOCAL APPLICATION FOR SKIN-MUCOSA DECOLONISATION OF STAPHYLOCOCCUS AUREUS” (Assistance Publique Hôpitaux de Marseille, priority 2009, dated 2011)
≈ marks a conversion by molar mass, not a printed value. Like-named read-outs stand apart in the source and are kept apart here.

Legend:
[1] = system: S. aureus ATCC 25923; experiment: MIC (CMI) determination on reference strain; assay type: cell-based, Staphylococcus aureus
Protocol: Les composés IIIa et IIIb (selon l'invention) avec R=-(CH2)n1-NHZ et n1=2 à 9 présentent une CMI de 2,5 à 20 µg/ml. Tableau 1 : CMI des dérivés III-a sur S. aureus ATCC 25923
(§1) Le composé III-1 présente la meilleure activité avec une CMI de 1µg/ml pour S. Aureus. Tableau 2 : CMI de la squalamine Ia et des dérivés II-1 et III-1 sur différentes souches de S. aureus.

[2] = system: Staphylococcus aureus (MRSA); experiment: MIC (CMI) determination on MRSA strain; assay type: cell-based; conditions: read-out: CMI
Protocol: as §1

[3] = system: différentes souches de S. aureus (y compris des souches résistantes à la méticilline (MRSA)); conditions: different S. aureus strains including MRSA; cited from earlier work
[4] = system: S. aureus (souche de référence ATCC 25923); experiment: Comparative mouse skin colonisation model, single application of ointment, counts at 30 minutes and 1 hour; assay type: in vivo, souris; conditions: for activité de décolonisation par rapport à la squalamine et analogues: comparative ointments, 30 minutes and 1 hour
Protocol: On a également utilisé à fin de comparaisons une pommade à base de mupirocine (Bactroban®), d'acide fusidique (Fucidine®) ou de vancomycine et vaseline à titre de contrôle dans les mêmes conditions expérimentales. Ainsi, 10 µl d'une suspension bactérienne calibrée à 10^6 CFU/ml S. aureus a été appliquée sur la peau préalablement rasée d'une série de 6 souris sur deux quadrants différents (figure 4). Après 2 heures d'incubation et séchage, la pommade a été appliquée sur un des deux quadrants de peau contre une pommade contenant l'excipient seul sur l'autre quadrant. Les quantités de S. aureus, au temps 0 (avant application de la pommade) puis après 30 minutes et 1 heure d'application, ont été déterminées par écouvillonnage cutané et mise en culture sur milieu Chapman pour le dénombrement des colonies comme décrit précédemment.

[5] = system: S. aureus (souche de référence ATCC 25923); experiment: Mouse skin colonisation model, single application of 1% ointment, counts at day 1 and day 2; assay type: in vivo, souris; conditions: figure 4, from environ 10^6 CFU/ml at J0
Protocol: Afin de tester l'activité in vivo des composés, on a inventé un modèle expérimental de colonisation cutanéo-muqueuse à S. aureus chez la souris. […] Brièvement, 10 µl d'une suspension bactérienne calibrée à 10^8 CFU/ml S. aureus a été appliquée sur la peau préalablement rasée des souris sur deux quadrants différents (figure 3). La colonisation par S. aureus était ensuite suivie quotidiennement pendant 2 jours par écouvillonnage cutané des souris, reprise de l'écouvillon dans 1 ml d'eau stérile et mise en culture de 100 µl sur gélose Chapman à 37°C pendant 24 heures avant énumération des colonies bactériennes.
De la même manière, 10 µl d'une suspension bactérienne calibrée à 10^8 CFU/ml S. aureus a été appliquée sur la peau préalablement rasée d'une série de 4 souris sur deux quadrants différents (figure 3). […] Les quantités de S. aureus, au temps 0 (avant application de la pommade) puis aux jours 1 et 2 (J1 et J2) après application, ont été déterminées par écouvillonnage cutané et mise en culture sur milieu Chapman pour le dénombrement des colonies comme décrit précédemment.

[6] = system: Staphylococcus aureus; conditions: 1% ointment, 2 fois/jour for 48 heures before surgery, fosses nasales; cited from earlier work
[7] = system: Staphylococcus; conditions: au bout de 24 heures; cited from earlier work
[8] = Staphylococcus aureus, ATCC25923, read-out: CMI
[9] = from environ 2.10^4 CFU/ml at t=0, single application of 1% ointment
[10] = Staphylococcus aureus, ATCC25923, dérivés III-a, R=-(CH2)n1-NH2, S. aureus ATCC 25923, read-out: CMI

CC(C)CCC[C@@H](C)[C@H]1CC[C@H]2[C@@H]3[C@@H](NCCCCN)C=C4C[C@@H](O)CC[C@]4(C)[C@H]3CC[C@]12C [II-1, 7β-(1,4-diaminobutane)-cholest-5-ene-3β-ol]
MIC [1, 8]: 2 µg/mL (≈ 4.23 µM) | MIC ([2]; Staphylococcus aureus, MRSA): 2 µg/mL (≈ 4.23 µM) | CMI [3]: 2 µg/mL | décolonisation escomptée en moins de 24 heures ([4]; expected from the 60 minute result): ≥ 99,90% | concentration au bout de 60 minutes [4, 9]: 55 CFU/ml

C[C@H](NCCN)[C@H]1CC[C@H]2[C@@H]3CCC4=C[C@@H](NCCN)CC[C@]4(C)[C@H]3CC[C@]12C [III-a n1=2]
MIC [1, 10]: 20 µg/mL (≈ 49.7 µM)

C[C@H](NCCCN)[C@H]1CC[C@H]2[C@@H]3CCC4=C[C@@H](NCCCN)CC[C@]4(C)[C@H]3CC[C@]12C [III-a n1=3]
MIC [1, 10]: 5 µg/mL (≈ 11.6 µM)

C[C@H](NCCCCN)[C@H]1CC[C@H]2[C@@H]3CCC4=C[C@@H](NCCCCN)CC[C@]4(C)[C@H]3CC[C@]12C [III-a n1=4]
MIC [1, 8]: 5 µg/mL (≈ 10.9 µM)

C[C@H](NCCCCCN)[C@H]1CC[C@H]2[C@@H]3CCC4=C[C@@H](NCCCCCN)CC[C@]4(C)[C@H]3CC[C@]12C [III-a n1=5]
MIC [1, 10]: 5 µg/mL (≈ 10.3 µM)

C[C@H](NCCCCCCN)[C@H]1CC[C@H]2[C@@H]3CCC4=C[C@@H](NCCCCCCN)CC[C@]4(C)[C@H]3CC[C@]12C [III-a n1=6]
MIC [1, 10]: 2.5 µg/mL (≈ 4.86 µM)

C[C@H](NCCCCCCCN)[C@H]1CC[C@H]2[C@@H]3CCC4=C[C@@H](NCCCCCCCN)CC[C@]4(C)[C@H]3CC[C@]12C [III-a n1=7]
MIC [1, 8]: 2.5 µg/mL (≈ 4.6 µM)

C[C@H](NCCCCCCCCN)[C@H]1CC[C@H]2[C@@H]3CCC4=C[C@@H](NCCCCCCCCN)CC[C@]4(C)[C@H]3CC[C@]12C [III-a n1=8]
MIC [1, 10]: 2.5 µg/mL (≈ 4.38 µM)

C[C@H](NCCCCCCCCCN)[C@H]1CC[C@H]2[C@@H]3CCC4=C[C@@H](NCCCCCCCCCN)CC[C@]4(C)[C@H]3CC[C@]12C [III-a n1=9]
MIC [1, 10]: 5 µg/mL (≈ 8.35 µM)

CC(C)[C@@H](CC[C@@H](C)[C@H]1CC[C@H]2[C@@H]3[C@H](O)C[C@H]4C[C@@H](NCCCNCCCCN)CC[C@]4(C)[C@H]3CC[C@]12C)OS(=O)(=O)O [Ia, squalamine]
concentration en bactéries Staphylococcus aureus à J1 [5]: 10^2 CFU/ml | concentration en bactéries Staphylococcus aureus à J2 [5]: ~10^1 CFU/ml | MIC ([1]; ATCC25923, Staphylococcus aureus ATCC 25923, read-out: CMI): 2 µg/mL (≈ 3.18 µM) | MIC ([2]; Staphylococcus aureus (MRSA)): 2 µg/mL (≈ 3.18 µM) | CMI [3]: 2 µg/mL | diminution du nombre de CFU/ml après 1 heure ([4]; 1% ointment, single application, figure 6): 4 logarithmes | concentration à t=30 minutes [4, 9]: < 1 CFU/ml

CC(=O)O[C@H]1C[C@@]2(C)[C@@H](C[C@@H](O)[C@H]3[C@@]4(C)CC[C@@H](O)[C@@H](C)[C@@H]4CC[C@@]32C)/C1=C(\CCC=C(C)C)C(=O)O [acide fusidique]
activité de décolonisation par rapport à la squalamine et analogues [4]: activité nettement moindre et moins rapide

C/C(=C\C(=O)OCCCCCCCCC(=O)O)C[C@@H]1OC[C@H](C[C@@H]2O[C@H]2[C@@H](C)[C@H](C)O)[C@@H](O)[C@H]1O [mupirocine]
décolonisation des bactéries Staphylococcus aureus [6]: 99,9% | division de la concentration de bactéries Staphylococcus [7]: 5.10^2 CFU/ml | activité de décolonisation par rapport à la squalamine et analogues [4]: activité nettement moindre et moins rapide

CN[C@H](CC(C)C)C(=O)N[C@H]1C(=O)N[C@@H](CC(N)=O)C(=O)N[C@H]2C(=O)N[C@H]3C(=O)N[C@H](C(=O)N[C@H](C(=O)O)c4cc(O)cc(O)c4-c4cc3ccc4O)[C@H](O)c3ccc(c(Cl)c3)Oc3cc2cc(c3O[C@@H]2O[C@H](CO)[C@@H](O)[C@H](O)[C@H]2O[C@H]2C[C@](C)(N)[C@H](O)[C@H](C)O2)Oc2ccc(cc2Cl)[C@H]1O [vancomycine]
activité de décolonisation par rapport à la squalamine et analogues [4]: activité nettement moindre et moins rapide
